Data from patent EP0923551B1, “4-AMINOETHOXY INDOLONE DERIVATIVES” (AMERICAN HOME PRODUCTS CORPORATION, priority 1996, dated 1998).

Biological target: dopamine autoreceptor (Rattus norvegicus, UniProt P61169)
Test: Affinity for the dopamine autoreceptor, 3H-quinpirole binding in homogenized rat striatal brain tissue
Conditions: for IC50: 3H-quinpirole, homogenized rat striatal brain tissue, read-out: IC50 (nM) D2 Quin.; for Ratio: ratio of IC50 D2 Spiper to IC50 D2 Quin. (LowAg/HighAg, predicts intrinsic activity)

Sequence of dopamine autoreceptor (P61169 whole entry): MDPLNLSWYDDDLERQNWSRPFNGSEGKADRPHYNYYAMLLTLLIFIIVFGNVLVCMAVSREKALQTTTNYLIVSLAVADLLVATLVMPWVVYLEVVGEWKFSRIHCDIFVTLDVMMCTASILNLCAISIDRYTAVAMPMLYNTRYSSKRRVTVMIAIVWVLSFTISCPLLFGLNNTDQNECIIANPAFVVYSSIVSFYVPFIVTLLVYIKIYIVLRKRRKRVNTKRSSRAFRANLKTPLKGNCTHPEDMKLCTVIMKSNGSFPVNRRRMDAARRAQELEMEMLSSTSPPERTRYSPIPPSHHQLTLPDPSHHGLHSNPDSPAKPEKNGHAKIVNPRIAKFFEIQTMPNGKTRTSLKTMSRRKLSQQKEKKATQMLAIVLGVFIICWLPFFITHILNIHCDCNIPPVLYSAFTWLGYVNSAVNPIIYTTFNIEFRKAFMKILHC

Question: How did the IC50 turn out when O=C1Cc2c(cccc2OCCNCc2ccccc2)N1 [Example 1, 4-(2-Benzylaminoethoxy)-1,3-dihydro-indol-2-one] was run?
Answer: Its IC50 is 0.41 nM.

Question: What about the Ratio of the same compound?
Answer: Its Ratio is 354.

Question: For CNCCOc1cccc2c1CC(=O)N2 [Example 2, 4-(2-Methylamino-ethoxy)-1,3-dihydro-indol-2-one], which IC50 is on record?
Answer: Its IC50 is 4.31 nM.

Question: What about the Ratio of the same compound?
Answer: The Ratio was 213.

Question: With NCCOc1cccc2c1CC(=O)N2 [Example 3, 4-(2-Amino-ethoxy)-1,3-dihydro-indol-2-one] as the compound, how does the IC50 read?
Answer: Its IC50 is 13.9 nM.

Question: And the Ratio?
Answer: The Ratio was 246.

Question: O=C1Cc2c(OCCNCc3ccc(F)cc3)ccc(Cl)c2N1 [Example 4] was tested. Which IC50 did it give?
Answer: The IC50 was 2.54 nM.

Question: What about the Ratio of the same compound?
Answer: The Ratio was 69.

Question: What does the source list for O=C1Cc2c(OCCNCc3ccc(Cl)cc3)ccc(Cl)c2N1 [Example 5]?
Answer: IC50: 2.81 nM; Ratio: 19

Question: Which IC50 does the source give for Cc1ccc(CNCCOc2ccc(Cl)c3c2CC(=O)N3)cc1 [Example 6] here?
Answer: Its IC50 is 1.1 nM.

Question: And the Ratio?
Answer: Its Ratio is 52.

Question: How did the IC50 turn out when CN(CCOc1ccc(Cl)c2c1CC(=O)N2)Cc1ccccc1 [Example 7, 4-[2-(N-Benzyl-N-methyl-amino)-ethoxy]-7-chloro-1,3-dihydro-indol-2-one] was run?
Answer: The IC50 was 3.68 nM.

Question: What about the Ratio of the same compound?
Answer: Its Ratio is 63.

Question: With CCCCNCCOc1ccc(Cl)c2c1CC(=O)N2 [Example 8, 4-(2-Butylamino-ethoxy)-7-chloro-1,3-dihydro-indol-2-one] as the compound, how does the IC50 read?
Answer: The IC50 was 1.89 nM.

Question: What about the Ratio of the same compound?
Answer: Its Ratio is 76.

Question: O=C1Cc2c(OCCN3CCc4ccccc4C3)ccc(Cl)c2N1 [Example 9, 7-Chloro-4-[2-(3,4-dihydro-1H-isoquinolin-2-yl)-ethoxy]-1,3-dihydro-indol-2-one] was tested. Which IC50 did it give?
Answer: The IC50 was 1.31 nM.

Question: And the Ratio?
Answer: Its Ratio is 62.

Question: With O=C1Cc2c(OCCN3Cc4ccccc4C3)ccc(Cl)c2N1 [Example 10, 7-Chloro-4-[2-(1,3-dihydro-isoindol-2-yl)-ethoxy]-1,3-dihydro-indol-2-one] as the compound, how does the IC50 read?
Answer: Its IC50 is 0.55 nM.

Question: How did the IC50 turn out when O=C1Cc2c(OCCNCc3ccc(-c4ccccc4)cc3)ccc(Cl)c2N1 [Example 11, 4-{2-[(Biphenyl-4-ylmethyl)-amino]-ethoxy}-7-chloro-1,3-dihydro-indol-2-one] was run?
Answer: The IC50 was 41.1 nM.

Question: For O=C1Cc2c(cccc2OCCNCCCCc2ccccc2)N1 [Example 13], which IC50 is on record?
Answer: Its IC50 is 0.45 nM.

Question: What about the Ratio of the same compound?
Answer: Its Ratio is 55.

Question: Which results are given for O=C1Cc2c(OCCNCc3ccccc3)ccc(Cl)c2N1 [Example 14, 4-(2-Benzylamino-ethoxy)-7-chloro-1,3-dihydro-indol-2-one]?
Answer: IC50: 0.82 nM; Ratio: 44

Question: What does the source list for O=C1Cc2c(OCCNCc3ccccc3)ccc(F)c2N1 [Example 15, 4-(2-Benzylamino-ethoxy)-7-fluoro-1,3-dihydro-indol-2-one]?
Answer: IC50: 0.91 nM; Ratio: 76

Question: How did the IC50 turn out when O=C1Cc2c(OCCNCC3CCCCC3)ccc(F)c2N1 [Example 16, 4-[2-(Cyclohexylmethyl-amino)-ethoxy)-7-fluoro-1,3-dihydro-indol-2-one] was run?
Answer: Its IC50 is 1.58 nM.

Question: And the Ratio?
Answer: The Ratio was 63.

Question: How did the IC50 turn out when O=C1Cc2c(OCCNCCCc3c[nH]c4ccccc34)ccc(F)c2N1 [Example 18, 4-{2-[3-(1H-Indol-yl)-propylamino]-ethoxy}-7-fluoro-1,3-dihydro-indol-2-one] was run?
Answer: The IC50 was 0.3 nM.

Question: How did the IC50 turn out when O=C1Cc2c(OCCN3Cc4ccccc4C3)ccc(F)c2N1 [Example 19, 4-[2-(1,3-Dihydro-isoindol-2-yl)-ethoxy]-7-fluoro-1,3-dihydro-indol-2-one] was run?
Answer: The IC50 was 3.57 nM.

Question: For O=C1Cc2c(OCCNCc3ccc(-c4ccccc4)cc3)ccc(F)c2N1 [Example 20, 4-{2-[(Biphenyl-4-ylmethyl)-amino]-ethoxy}-7-fluoro-1,3-dihydro-indol-2-one], which IC50 is on record?
Answer: Its IC50 is 11.1 nM.

Question: Which IC50 does the source give for O=C1Cc2c(OCCNCc3ccc4ccccc4c3)ccc(F)c2N1 [Example 21, 7-Fluoro-4-{2-[(napthalen-2-ylmethyl)-aminol]-ethoxy}-1,3-dihydro-indol-2-one] here?
Answer: Its IC50 is 1.27 nM.

Question: How did the IC50 turn out when O=C1Cc2c(OCCN3CCc4ccccc4C3)ccc(F)c2N1 [Example 22, 4-[2-(3,4-Dihydro-1H-isoquinolin-2-yl)-ethoxy]-7-fluoro-1,3-dihydro-indol-2-one] was run?
Answer: The IC50 was 1.84 nM.

Question: CN(CCOc1cccc2c1CC(=O)N2)Cc1ccccc1 [Example 25, 4-[2-(Benzyl-methyl-amino)-ethoxy]-1,3-dihydro-indol-2-one] was tested. Which IC50 did it give?
Answer: Its IC50 is 1.52 nM.

Question: What about the Ratio of the same compound?
Answer: Its Ratio is 424.

Question: With Cc1cccc(CN(CCOc2cccc3c2CC(=O)N3)Cc2cccc(C)c2)c1 [Example 26, 4-{2-[Bis-(3-methyl-benzyl)-amino]-ethoxy}-1,3-dihydro-indol-2-one] as the compound, how does the IC50 read?
Answer: The IC50 was 31.2 nM.

Question: What about the Ratio of the same compound?
Answer: Its Ratio is 619.

Question: CN(CCCC(=O)c1ccc(F)cc1)CCOc1cccc2c1CC(=O)N2 [Example 27, 4-(2-{[4-(4-Fluoro-phenyl)-4-oxo-butyl]-methyl-amino}-ethoxy)-1,3-dihydro-indol-2-one] was tested. Which IC50 did it give?
Answer: The IC50 was 6.22 nM.

Question: And the Ratio?
Answer: The Ratio was 57.
